For one assay, the system named is PC9. The assay can be described thus: Lung cancer cell proliferation suppression, PC9. Format: cell-based. The settings on record: Homo sapiens, PC-9; 72 hours after treatment, CellTiter-Glo. The method, then:
(§1) The following experiment was carried out to evaluate the suppression activity of the compounds according to the present invention against proliferation of Ba/F3 and lung cancer cells which express EGFR mutations.
(§2) Of the cancer cell lines expressing the EGFR gene, A549 was cultured after adding 10% FBS (HyClone) to DMEM (Invitrogen), and RPMI-1640 (Invitrogen) with 10% FBS was used for the other cancer cells. For the Ba/F3 cells, RPMI-1640 with 10% FBS and 5 ng/ml IL-3 (R&D Systems) was used. The transduced Ba/F3 cells were cultured by adding 1 ug/ml puromycin (Invitrogen) to the same medium.
(§3) 24 hours before treatment with the compounds, 3000 to 5000 cells were distributed into each well of a white clear bottom 96 well plate (Corning). The compounds were diluted in dimethylsulfoxide (dilution ratio 3:1; 12 concentrations total) and injected 0.5 ul each for a final concentration of 0.3 nM to 50 um. As for measurement of live cells, 72 hours after treatment with the compounds, a CellTiter-Glo luminescent cell-viability reagent (Promega) was used to store the cells at room temperature for 10 minutes, followed by measurement of luminescence using a reader (SynergyNeo, Biotek). Each test was repeated three times.
(§4) The result was calculated as a cell growth ratio (%) compared to a control. The program GraphPad Prism version 5.0 was used to draw the graphs and calculate the GI50 values.

In the next assay the test system is Ba/F3 cell naive. The assay can be described thus: Ba/F3 cell proliferation suppression, naive. Format: cell-based. The settings on record: Mus musculus, BaF3; 72 hours after treatment, CellTiter-Glo. The method, then: as §1, §2, §3, §4
(In general: Cellular ATP, detected with luciferase, serves as a proxy for viable cell number.)

The target of another assay is T1, Ba/F3 cell EGFR L858R (Homo sapiens, UniProt P00533, L858R).
T1 construct: expressed in transfected cells; host or cells: Ba/F3
The assay can be described thus: Ba/F3 cell proliferation suppression, EGFR L858R. The settings on record: 72 hours after treatment, CellTiter-Glo. It counts as cell-based. The protocol: as §1, §2, §3, §4

Assay [1] addresses T2, Ba/F3 cell EGFR Exon20 ins FQEA (Homo sapiens, UniProt P00533, INS763FQEA).
T2 construct: expressed in transfected cells; host or cells: Ba/F3
The assay can be described thus: Ba/F3 cell proliferation suppression, EGFR Exon20 ins FQEA. Format: cell-based. The following applies: 72 hours after treatment, CellTiter-Glo. The method, then: as §1, §2, §3, §4

Assay [2] deals with Ba/F3 cell EGFR Del19/T790M. The assay can be described thus: Ba/F3 cell proliferation suppression, EGFR Del19/T790M. Format: cell-based. The following applies: 72 hours after treatment, CellTiter-Glo. The protocol:
as §1, §2, §3, §4

Assay [3] concerns the target T3, Ba/F3 cell EGFR L858R/T790M (Homo sapiens, UniProt P00533, L858R/T790M).
T3 construct: expressed in transfected cells; host or cells: Ba/F3
The assay can be described thus: Ba/F3 cell proliferation suppression, EGFR L858R/T790M. The following applies: 72 hours after treatment, CellTiter-Glo. It counts as cell-based. The method, then: as §1, §2, §3, §4

Another assay relates to H1975. The experiment in a line: Lung cancer cell proliferation suppression, H1975. It counts as cell-based. The following applies: Homo sapiens, NCI-H1975; 72 hours after treatment, CellTiter-Glo. The protocol: as §1, §2, §3, §4
A further assay relates to PC9GR. The assay can be described thus: Lung cancer cell proliferation suppression, PC9GR. It counts as cell-based. The settings on record: 72 hours after treatment, CellTiter-Glo. The protocol:
as §1, §2, §3, §4

For assay [4], the target named is T4, Ba/F3 cell HER2 Exon20 ins YVMA (Homo sapiens, UniProt P04626, INS775YVMA).
T4 construct: expressed in transfected cells; host or cells: Ba/F3
The assay can be described thus: Ba/F3 cell proliferation suppression, HER2 Exon20 ins YVMA. The settings on record: 72 hours after treatment, CellTiter-Glo. Format: cell-based. The protocol: as §1, §2, §3, §4

Assay [5] deals with T5, Ba/F3 cell EGFR Exon20 ins NPH (Homo sapiens, UniProt P00533, INS773NPH).
T5 construct: expressed in transfected cells; host or cells: Ba/F3
The assay can be described thus: Ba/F3 cell proliferation suppression, EGFR Exon20 ins NPH. The following applies: for GI50: 72 hours after treatment, CellTiter-Glo; for Ba/F3 (NPH) Activity: GI50 class, Ba/F3 cell line with NPH inserted at Exon20 of EGFR, 72 hours. Format: cell-based. The method in brief:
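Growth suppression determined as GI50 following 72 h exposure across 12 concentrations up to 50 um, with viability by luminescent ATP assay (CellTiter-Glo).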

Assay [6] has as its target T6, Ba/F3 cell EGFR Exon20 ins SVD (Homo sapiens, UniProt P00533, INS770SVD).
T6 construct: expressed in transfected cells; host or cells: Ba/F3
The experiment in a line: Ba/F3 cell proliferation suppression, EGFR Exon20 ins SVD. It counts as cell-based. The settings on record: 72 hours after treatment, CellTiter-Glo. The method, then:
as §1, §2, §3, §4

The target of assay [7] is T7, Ba/F3 cell EGFR Exon20 ins ASV (Homo sapiens, UniProt P00533, INS769ASV).
T7 construct: expressed in transfected cells; host or cells: Ba/F3
The experiment in a line: Ba/F3 cell proliferation suppression, EGFR Exon20 ins ASV. Format: cell-based. The settings on record: 72 hours after treatment, CellTiter-Glo. The method, then: as §1, §2, §3, §4

In assay [8] the test system is scanMAX kinase panel (EGFR mutant, ERBB2, ERBB4). The experiment in a line: DiscoverX (eurofin) KINOMEscan (scanMAX platform) kinase profiling. It counts as binding. The settings on record: for suppression activity against the EGFR mutant and ERBB2 and ERBB4: KINOMEscan scanMAX kinase profiling. The source says:
It was confirmed that the above example compounds had high selectivity against EGFR series genes. Accordingly, these can be useful in the treating of cancers wherein this kinase is expressed. In particular, as they have substantially outstanding lung cancer cell line proliferation suppression, they can be useful in the treatment of lung cancer, breast cancer, and brain cancer.

The GI50 is the concentration that inhibits growth by half.

T4 sequence (P04626 with tags, fused parts or gaps INS775YVMA): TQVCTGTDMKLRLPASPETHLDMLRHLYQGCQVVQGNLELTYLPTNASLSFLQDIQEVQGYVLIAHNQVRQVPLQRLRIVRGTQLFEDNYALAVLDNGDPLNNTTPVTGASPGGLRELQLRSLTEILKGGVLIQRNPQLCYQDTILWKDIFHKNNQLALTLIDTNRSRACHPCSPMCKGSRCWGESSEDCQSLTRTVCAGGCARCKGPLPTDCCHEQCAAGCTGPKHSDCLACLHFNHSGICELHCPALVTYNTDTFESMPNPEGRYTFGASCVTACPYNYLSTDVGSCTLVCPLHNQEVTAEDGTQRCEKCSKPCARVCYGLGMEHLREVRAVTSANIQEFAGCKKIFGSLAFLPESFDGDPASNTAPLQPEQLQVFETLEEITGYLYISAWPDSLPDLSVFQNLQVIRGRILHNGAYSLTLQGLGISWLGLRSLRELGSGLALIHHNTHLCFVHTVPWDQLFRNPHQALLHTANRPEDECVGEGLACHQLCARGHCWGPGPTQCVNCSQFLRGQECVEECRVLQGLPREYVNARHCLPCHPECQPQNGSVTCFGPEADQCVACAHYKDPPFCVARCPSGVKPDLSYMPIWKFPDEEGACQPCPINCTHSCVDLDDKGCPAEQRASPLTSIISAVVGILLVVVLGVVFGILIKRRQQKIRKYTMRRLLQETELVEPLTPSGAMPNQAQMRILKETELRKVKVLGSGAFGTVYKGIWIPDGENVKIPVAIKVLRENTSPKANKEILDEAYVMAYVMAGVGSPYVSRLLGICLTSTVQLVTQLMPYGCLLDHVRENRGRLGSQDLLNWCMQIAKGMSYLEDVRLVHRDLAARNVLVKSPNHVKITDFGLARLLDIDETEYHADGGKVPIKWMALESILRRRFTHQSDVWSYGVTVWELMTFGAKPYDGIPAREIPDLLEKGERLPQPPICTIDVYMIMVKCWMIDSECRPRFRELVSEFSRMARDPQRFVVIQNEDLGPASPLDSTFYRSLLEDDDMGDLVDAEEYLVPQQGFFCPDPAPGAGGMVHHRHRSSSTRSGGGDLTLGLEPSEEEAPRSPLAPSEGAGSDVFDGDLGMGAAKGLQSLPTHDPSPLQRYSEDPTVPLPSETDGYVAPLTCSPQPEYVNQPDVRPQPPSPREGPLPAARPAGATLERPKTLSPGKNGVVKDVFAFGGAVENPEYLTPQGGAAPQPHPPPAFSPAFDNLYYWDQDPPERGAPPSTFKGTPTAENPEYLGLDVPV

With `C=CC(=O)Nc1cc(Nc2cc(N3OCC[C@@H]3c3cc(F)cc(F)c3)ncn2)c(OC)cc1N1CCC(N2C[C@@H]3C[C@H]2CO3)CC1` [Example 239, N-(2-(4-((1S,4S)-2-oxa-5-azabicyclo[2.2.1]heptane-5-yl)piperidine-1-yl)-5-((6-((R)-3-(3,5-difluorophenyl)isoxazolidine-2-yl)pyrimidine-4-yl)amino)-4-methoxyphenyl) acrylamide], the 50% growth inhibitory concentration (GI50) is 1 nM with PC9; no less than 5 µM in the assay on Ba/F3 cell naive; less than 0.05 µM at Ba/F3 cell EGFR L858R; less than 0.05 µM in assay [1]; less than 0.05 µM in assay [2]; less than 0.05 µM in assay [3]. For the same molecule, the GI50 in the assay with H1975 is 1 nM; in the assay with PC9GR it was 5 nM; in assay [4], less than 0.05 µM; in [5], less than 0.05 µM; in assay [6], less than 0.05 µM; in assay [7], less than 0.05 µM. In addition, the “Ba/F3 (NPH) Activity” value in [5] is “A (GI50 < 50 nM)”. Moreover, the “% inhibition of scanMAX Kinase profiling” value in [8] (EGFR(E746-A750del)) was found to be 96%; in assay [8] (EGFR(G719C)), 100%; in assay [8] (EGFR(G719S)), 99%; in assay [8] (EGFR(L747-E749del, A750P)) it was 95%; in [8] (EGFR(L747-T751del.Sins)), 93%; in [8] (EGFR(L858R)), 100%. Also, the “% inhibition of scanMAX Kinase profiling” value in assay [8] (EGFR(L858R.T790M)) came to 98%; in assay [8] (EGFR(L861q)), 97%; in [8] (EGFR(S752-I759del)) it was 82%; in assay [8] (EGFR(T790M)), 100%; in [8] (ERBB2), 100%; in [8] (ERBB4), 100%. In addition, the “suppression activity against the EGFR mutant and ERBB2 and ERBB4” value (“suppression activity” below) in [8] is on record as “high suppression activity”.
Take `C=CC(=O)Nc1cc(Nc2cc(N3OCC[C@@H]3c3cc(F)cc(F)c3)ncn2)c(OC)cc1N1CCC(N2CCOCC2)CC1` [Example 30, N-(5-((6-((R)-3-(3,5-difluorophenyl)isoxazolidine-2-yl)pyrimidine-4-yl)amino)-4-methoxy-2-(4-morpholinopiperidine-1-yl)phenyl) acrylamide]: the GI50 is 1 nM in the assay on PC9; no less than 5 µM in the assay on Ba/F3 cell naive; less than 0.05 µM on Ba/F3 cell EGFR L858R; less than 0.05 µM in [1]; less than 0.05 µM in assay [2]; less than 0.05 µM in [3]. The GI50 in the assay with H1975 was 1 nM; in the assay on PC9GR, 6 nM; in assay [4] it was less than 0.05 µM; in assay [5], less than 0.05 µM; in [6] it was less than 0.05 µM; in assay [7] it was less than 0.05 µM. For the same molecule, the “Ba/F3 (NPH) Activity” value in assay [5] was “A (GI50 < 50 nM)”. For the same molecule, the “% inhibition of scanMAX Kinase profiling” value in [8] (EGFR(E746-A750del)) is reported as 95%; in assay [8] (EGFR(G719C)), 100%; in assay [8] (EGFR(G719S)), 100%; in assay [8] (EGFR(L747-E749del, A750P)) it was 100%; in assay [8] (EGFR(L747-T751del.Sins)) it was 96%; in [8] (EGFR(L858R)), 100%. Also, the “% inhibition of scanMAX Kinase profiling” value in assay [8] (EGFR(L858R.T790M)) is given as 97%; in assay [8] (EGFR(L861q)), 100%; in assay [8] (EGFR(S752-I759del)) it was 99%; in assay [8] (EGFR(T790M)), 100%; in assay [8] (ERBB2) it was 100%; in [8] (ERBB4), 100%. For the same molecule, the “suppression activity” value in assay [8] is on record as “high suppression activity”.
Regarding `C=CC(=O)Nc1cc(Nc2cc(N3OCC[C@@H]3c3cc(F)cc(F)c3)ncn2)c(OC)cc1N1CCC(N2CCN(C3CC3)CC2)CC1` [Example 57], the GI50 in the assay on PC9 is 1 nM; in the assay with Ba/F3 cell naive, no less than 5 µM; on Ba/F3 cell EGFR L858R, less than 0.05 µM; in [1], less than 0.05 µM; in assay [2], less than 0.05 µM; in assay [3], less than 0.05 µM. For the same molecule, the GI50 in the assay with H1975 is 1 nM; with PC9GR it was 4 nM; in [4], less than 0.05 µM; in [5], less than 0.05 µM; in [6] it was less than 0.05 µM; in assay [7] it was less than 0.05 µM. Besides, in assay [5], the “Ba/F3 (NPH) Activity” value was “A (GI50 < 50 nM)”. For the same molecule, the “% inhibition of scanMAX Kinase profiling” value was 98% in [8] (EGFR(E746-A750del)); 100% in [8] (EGFR(G719C)); 100% in assay [8] (EGFR(G719S)); 98% in assay [8] (EGFR(L747-E749del, A750P)); 100% in assay [8] (EGFR(L747-T751del.Sins)); 100% in [8] (EGFR(L858R)). Besides, the “% inhibition of scanMAX Kinase profiling” value in assay [8] (EGFR(L858R.T790M)) came to 96%; in assay [8] (EGFR(L861q)), 100%; in assay [8] (EGFR(S752-I759del)), 98%; in [8] (EGFR(T790M)) it was 100%; in [8] (ERBB2) it was 100%; in assay [8] (ERBB4), 100%. The “suppression activity” value in assay [8] was “high suppression activity”.
For the molecule `C=CC(=O)Nc1cc(Nc2cc(N3OCC[C@@H]3c3cc(F)cc(F)c3)ncn2)c(OC)cc1N1CC[C@@H](N(C)C)C1` [Example 242, N-(5-((6-((R)-3-(3,5-difluorophenyl)isoxazolidine-2-yl)pyrimidine-4-yl)amino)-2-((R)-3-(dimethylamino)pyrolidine-1-yl)-4-methoxyphenyl) acrylamide], the GI50 with PC9 is 1 nM; with Ba/F3 cell naive it was 0.5 to 5 µM; at Ba/F3 cell EGFR L858R, less than 0.05 µM; in assay [1] it was less than 0.05 µM; in assay [2] it was 0.05 to 0.5 µM; in [3] it was less than 0.05 µM. Moreover, the GI50 in the assay with H1975 is 4 nM; in the assay with PC9GR it was 23 nM; in assay [4] it was less than 0.05 µM; in assay [5], less than 0.05 µM; in assay [6], less than 0.05 µM; in assay [7] it was less than 0.05 µM. In [5], the “Ba/F3 (NPH) Activity” value was “A (GI50 < 50 nM)”. Moreover, the “suppression activity” value in [8] is recorded as “high suppression activity”.

(Values after patent US12157730B2, “Heteroaryl derivative, method for producing same, and pharmaceutical composition comprising same as effective component” (VORONOI INC., priority 2019, dated 2024).)
